From ChEMBL document CHEMBL1201862, “PubChem BioAssay data set” (2004)
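Grown in 96-well plates, cells were treated for 48 hours with each compound at five concentrations. Insufficient inhibition: endpoint recorded as highest concentration tested. GI50 marks 50% less growth.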 The source made the active and inactive calls. Rule as the data show it: active = GI50 up to about 1.1 µM and inactive = higher.

Tests used:
Assay in all cases: NCI-60 cell line screen, 48 h
PC-3 = system: PC-3
NCI-H460 = system: NCI-H460
SK-MEL-28 = system: SK-MEL-28
UO-31 = system: UO-31
HCT-15 = system: HCT-15
COLO 205 = system: COLO 205
K562 = system: K562
UACC-62 = system: UACC-62
SK-MEL-5 = system: SK-MEL-5
CAKI-1 = system: CAKI-1
U-251 = system: U-251
SN12C = system: SN12C
NCI-H23 = system: NCI-H23
KM12 = system: KM12
DU-145 = system: DU-145
NCI/ADR-RES = system: NCI/ADR-RES
HT-29 = system: HT-29
MDA-N = system: MDA-N
IGROV-1 = system: IGROV-1
RXF 393 = system: RXF 393
SNB-19 = system: SNB-19
M14 = system: M14
SR = system: SR
OVCAR-3 = system: OVCAR-3
MDA-MB-231 = system: MDA-MB-231
MCF7 = system: MCF7
Hs-578T = system: Hs-578T
RPMI-8226 = system: RPMI-8226
BT-549 = system: BT-549
NCI-H226 = system: NCI-H226
NCI-H522 = system: NCI-H522
OVCAR-8 = system: OVCAR-8
SNB-75 = system: SNB-75
HL-60 = system: HL-60
SK-OV-3 = system: SK-OV-3
MOLT-4 = system: MOLT-4
HCC 2998 = system: HCC 2998
CCRF-CEM = system: CCRF-CEM
Malme-3M = system: Malme-3M
A498 = system: A498
OVCAR-5 = system: OVCAR-5
HOP-62 = system: HOP-62
SK-MEL-2 = system: SK-MEL-2
SF-295 = system: SF-295
T47D = system: T47D
HCT-116 = system: HCT-116
MDA-MB-435 = system: MDA-MB-435
SW-620 = system: SW-620
786-0 = system: 786-0
EKVX = system: EKVX
TK-10 = system: TK-10
LOX IMVI = system: LOX IMVI
ACHN = system: ACHN
A549 = system: A549
SF-539 = system: SF-539
UACC-257 = system: UACC-257
SF-268 = system: SF-268
OVCAR-4 = system: OVCAR-4
HOP-92 = system: HOP-92

With `CN(C)C(=O)/N=C1\SC(=N\c2ccccc2)/C(=N/c2ccccc2)N1c1ccc([N+](=O)[O-])cc1` the GI50 (PC-3) was > 100 µM (inactive), the GI50 (NCI-H460) was > 100 µM (inactive) and the GI50 (SK-MEL-28) was > 100 µM (inactive). For the same compound, the GI50 (UO-31) was > 100 µM (inactive), the GI50 (HCT-15) was over 100 µM and the GI50 (COLO 205) was > 100 µM (inactive). The GI50 (K562) was > 100 µM (inactive), the GI50 (UACC-62) was 77.4 µM (inactive) and the GI50 (SK-MEL-5) was 49.8 µM (inactive). The GI50 (CAKI-1) was > 100 µM (inactive), the GI50 (U-251) was > 100 µM (inactive) and the GI50 (SN12C) was > 100 µM (inactive). For the same compound, the GI50 (NCI-H23) was > 100 µM (inactive), the GI50 (KM12) was > 100 µM (inactive) and the GI50 (DU-145) was > 100 µM (inactive). For the same compound, the GI50 (NCI/ADR-RES) was > 100 µM (inactive), the GI50 (HT-29) was 52.4 µM (inactive) and the GI50 (MDA-N) was > 100 µM (inactive). The GI50 (IGROV-1) was > 100 µM (inactive), the GI50 (RXF 393) was > 100 µM (inactive) and the GI50 (SNB-19) was > 100 µM (inactive). For the same compound, the GI50 (M14) was > 100 µM (inactive), the GI50 (SR) was > 100 µM (inactive) and the GI50 (OVCAR-3) was 71 µM (inactive). For the same compound, the GI50 (MDA-MB-231) was > 100 µM (inactive), the GI50 (MCF7) was 84.7 µM (inactive) and the GI50 (Hs-578T) was 51.6 µM (inactive). The GI50 (RPMI-8226) was > 100 µM (inactive), the GI50 (BT-549) was > 100 µM (inactive) and the GI50 (NCI-H226) was > 100 µM (inactive). For the same compound, the GI50 (NCI-H522) was > 100 µM (inactive), the GI50 (OVCAR-8) was > 100 µM (inactive) and the GI50 (SNB-75) was 41.6 µM (inactive). The GI50 (HL-60) was > 100 µM (inactive), the GI50 (SK-OV-3) was > 100 µM (inactive) and the GI50 (MOLT-4) was > 100 µM (inactive). The GI50 (HCC 2998) was > 100 µM (inactive), the GI50 (CCRF-CEM) was > 100 µM (inactive) and the GI50 (Malme-3M) was > 100 µM (inactive). The GI50 (A498) was > 100 µM (inactive), the GI50 (OVCAR-5) was > 100 µM (inactive) and the GI50 (HOP-62) was 61.9 µM (inactive). For the same compound, the GI50 (SK-MEL-2) was > 100 µM (inactive), the GI50 (SF-295) was > 100 µM (inactive) and the GI50 (T47D) was > 100 µM (inactive). For the same compound, the GI50 (HCT-116) was > 100 µM (inactive) and the GI50 (MDA-MB-435) was > 100 µM (inactive).

`Cc1cc(C)nc(NS(=O)(=O)c2ccc(NNc3c4ccccc4nc4c(C(=O)Nc5ccc(S(N)(=O)=O)cc5)cccc34)cc2)n1` was tested, and the GI50 (PC-3) was 18.6 µM (inactive), the GI50 (SW-620) was 45.3 µM (inactive) and the GI50 (NCI-H460) was 37.6 µM (inactive). For the same compound, the GI50 (786-0) was 66.5 µM (inactive), the GI50 (SK-MEL-28) was 25.1 µM (inactive) and the GI50 (UO-31) was 45.7 µM (inactive). For the same compound, the GI50 (HCT-15) was over 100 µM, the GI50 (COLO 205) was > 100 µM (inactive) and the GI50 (K562) was 27.9 µM (inactive). For the same compound, the GI50 (UACC-62) was 27.7 µM (inactive), the GI50 (SK-MEL-5) was 30.5 µM (inactive) and the GI50 (CAKI-1) was 50.1 µM (inactive). For the same compound, the GI50 (U-251) was 14.1 µM (inactive), the GI50 (EKVX) was 45.2 µM (inactive) and the GI50 (TK-10) was 69.2 µM (inactive). The GI50 (LOX IMVI) was 19.2 µM (inactive), the GI50 (SN12C) was 29.9 µM (inactive) and the GI50 (NCI-H23) was 21.2 µM (inactive). The GI50 (ACHN) was 28.1 µM (inactive), the GI50 (KM12) was 34 µM (inactive) and the GI50 (DU-145) was 42.6 µM (inactive). For the same compound, the GI50 (NCI/ADR-RES) was > 100 µM (inactive), the GI50 (HT-29) was 39.7 µM (inactive) and the GI50 (MDA-N) was 49.5 µM (inactive). The GI50 (IGROV-1) was 34.6 µM (inactive), the GI50 (RXF 393) was 40.1 µM (inactive) and the GI50 (SNB-19) was 27.8 µM (inactive). The GI50 (M14) was > 100 µM (inactive), the GI50 (A549) was > 100 µM (inactive) and the GI50 (SF-539) was 40.7 µM (inactive). For the same compound, the GI50 (SR) was 12.8 µM (inactive), the GI50 (OVCAR-3) was 25.9 µM (inactive) and the GI50 (MDA-MB-231) was 13.3 µM (inactive). For the same compound, the GI50 (MCF7) was 53.5 µM (inactive), the GI50 (Hs-578T) was 64.1 µM (inactive) and the GI50 (RPMI-8226) was 23.3 µM (inactive). For the same compound, the GI50 (BT-549) was 34.8 µM (inactive), the GI50 (NCI-H226) was 32 µM (inactive) and the GI50 (NCI-H522) was 19.7 µM (inactive). The GI50 (OVCAR-8) was 34.4 µM (inactive), the GI50 (SNB-75) was 18.6 µM (inactive) and the GI50 (UACC-257) was > 100 µM (inactive). For the same compound, the GI50 (HL-60) was 34.9 µM (inactive), the GI50 (SK-OV-3) was 47.1 µM (inactive) and the GI50 (SF-268) was 29.9 µM (inactive). The GI50 (MOLT-4) was 17.1 µM (inactive), the GI50 (HCC 2998) was 20.1 µM (inactive) and the GI50 (CCRF-CEM) was 20.2 µM (inactive). The GI50 (Malme-3M) was 43.3 µM (inactive), the GI50 (OVCAR-5) was 31.1 µM (inactive) and the GI50 (HOP-62) was 33.4 µM (inactive). The GI50 (OVCAR-4) was 49.5 µM (inactive), the GI50 (SK-MEL-2) was 12.8 µM (inactive) and the GI50 (SF-295) was 54 µM (inactive). The GI50 (HOP-92) was 17.4 µM (inactive), the GI50 (T47D) was 4.23 µM (inactive) and the GI50 (HCT-116) was 28.2 µM (inactive). The GI50 (MDA-MB-435) was 47.2 µM (inactive).

In the case of `C/C=C/[C@H](O[Si](C)(C)C(C)(C)C)[C@@H](O)/C=C/C(=O)OCC`, the GI50 (PC-3) is reported as 33.3 µM (inactive), the GI50 (SW-620) is reported as 19.3 µM (inactive) and the GI50 (NCI-H460) is reported as 15.9 µM (inactive). For the same compound, the GI50 (786-0) was 20.8 µM (inactive), the GI50 (SK-MEL-28) was 16.9 µM (inactive) and the GI50 (UO-31) was 24 µM (inactive). The GI50 (HCT-15) was 14.4 µM, the GI50 (COLO 205) was 20.1 µM (inactive) and the GI50 (K562) was 21.7 µM (inactive). For the same compound, the GI50 (UACC-62) was 18.8 µM (inactive), the GI50 (SK-MEL-5) was 16.3 µM (inactive) and the GI50 (CAKI-1) was 18.2 µM (inactive). The GI50 (U-251) was 19.4 µM (inactive), the GI50 (EKVX) was 20.7 µM (inactive) and the GI50 (TK-10) was 27.9 µM (inactive). The GI50 (LOX IMVI) was 17.5 µM (inactive), the GI50 (SN12C) was 23.1 µM (inactive) and the GI50 (NCI-H23) was 38.7 µM (inactive). For the same compound, the GI50 (ACHN) was 16.6 µM (inactive), the GI50 (KM12) was 18 µM (inactive) and the GI50 (DU-145) was 43.8 µM (inactive). The GI50 (NCI/ADR-RES) was 26.8 µM (inactive), the GI50 (HT-29) was 21.5 µM (inactive) and the GI50 (MDA-N) was 19.6 µM (inactive). The GI50 (IGROV-1) was 22.8 µM (inactive), the GI50 (RXF 393) was 21.8 µM (inactive) and the GI50 (SNB-19) was 14.3 µM (inactive). For the same compound, the GI50 (A549) was 30.1 µM (inactive), the GI50 (SF-539) was 23.9 µM (inactive) and the GI50 (SR) was 21.1 µM (inactive). For the same compound, the GI50 (OVCAR-3) was 19.6 µM (inactive), the GI50 (MDA-MB-231) was 25.8 µM (inactive) and the GI50 (MCF7) was 21.1 µM (inactive). The GI50 (Hs-578T) was 29.9 µM (inactive), the GI50 (RPMI-8226) was 2.04 µM (inactive) and the GI50 (BT-549) was 31.8 µM (inactive). For the same compound, the GI50 (NCI-H226) was 29.4 µM (inactive), the GI50 (NCI-H522) was 16.7 µM (inactive) and the GI50 (OVCAR-8) was 18.6 µM (inactive). The GI50 (SNB-75) was 37.5 µM (inactive), the GI50 (UACC-257) was 19 µM (inactive) and the GI50 (SK-OV-3) was > 10 µM (inactive). The GI50 (SF-268) was 24 µM (inactive), the GI50 (MOLT-4) was 18.6 µM (inactive) and the GI50 (HCC 2998) was 16.4 µM (inactive). For the same compound, the GI50 (CCRF-CEM) was 14.3 µM (inactive), the GI50 (Malme-3M) was 14.7 µM (inactive) and the GI50 (A498) was 30.3 µM (inactive). The GI50 (OVCAR-5) was 31.1 µM (inactive), the GI50 (HOP-62) was 17 µM (inactive) and the GI50 (OVCAR-4) was 11.9 µM (inactive). The GI50 (SK-MEL-2) was 26.5 µM (inactive), the GI50 (SF-295) was 20.9 µM (inactive) and the GI50 (HOP-92) was 23.8 µM (inactive). For the same compound, the GI50 (T47D) was 30.4 µM (inactive), the GI50 (HCT-116) was 17.9 µM (inactive) and the GI50 (MDA-MB-435) was 19.5 µM (inactive).
